PubChem BioAssay (NCI)
“And” between values parts separate entries of the source, which are not always exact repeats. Equal entries are not always repeated.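 Cells were grown in 96-well plates and exposed to each compound for 48 hours at five concentrations; endpoints were interpolated linearly between bracketing concentrations, or set to the highest concentration if not reached. At the GI50, growth is halved. At the TGI there is no net growth.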

Columns and labels:
Test in all cases: NCI-60 cell line screen, 48 h
MDA-MB-435 = tested on: MDA-MB-435
NCI-H522 lung = tested on: NCI-H522 lung
NCI-H226 lung = tested on: NCI-H226 lung
IGROV1 ovarian = tested on: IGROV1 ovarian
U251 CNS = tested on: U251 CNS
RPMI-8226 leukemia = tested on: RPMI-8226 leukemia
NCI/ADR-RES ovarian = tested on: NCI/ADR-RES ovarian
BT-549 breast = tested on: BT-549 breast
HCC-2998 colon = tested on: HCC-2998 colon
SF-268 CNS = tested on: SF-268 CNS

Row | Structure (SMILES) | GI50 (MDA-MB-435) [nM] | TGI (MDA-MB-435) [µM] | GI50 (NCI-H522 lung) | TGI (NCI-H522 lung) | GI50 (NCI-H226 lung) [µM] | TGI (NCI-H226 lung) | GI50 (IGROV1 ovarian) [nM] | TGI (IGROV1 ovarian) | GI50 (U251 CNS) | TGI (U251 CNS) | GI50 (RPMI-8226 leukemia) | TGI (RPMI-8226 leukemia) | GI50 (NCI/ADR-RES ovarian) [µM] | TGI (NCI/ADR-RES ovarian) [µM] | GI50 (BT-549 breast) [nM] | TGI (BT-549 breast) [µM] | GI50 (HCC-2998 colon) | TGI (HCC-2998 colon) | GI50 (SF-268 CNS) [nM] | TGI (SF-268 CNS)
1 | COc1ccc(C2=CC(c3ccc(Oc4ccnc5cc(Cl)ccc45)c(OC)c3)c3c(nc(OC)[nH]c3=O)N2)cc1 (configuration not stated) | 5060 | > 100 | 3180 nM | 47.2 µM | 16.4 | > 100 µM | 26000 | > 100 µM | 6940 nM | > 100 µM | 2730 nM | 7.27 µM | 9.88 | > 100 | 3990 | > 100 | > 100000 nM | > 100 µM | 5090 | > 100 µM
2 | C[C@@H]1[C@H]2[C@H](C=C3[C@@H]4CC[C@H]5Cc6nc7c(nc6C[C@]5(C)[C@H]4C[C@@H](O)[C@@]32C)C[C@@H]2CC[C@H]3C4=C[C@@H]5O[C@@]6(CC[C@](C)(CO)O6)[C@@H](C)[C@@]5(O)[C@@]4(C)[C@H](O)C[C@@H]3[C@@]2(C)C7)O[C@]12CCC(C)(C)O2 | 2800 | 24.3 | 2260 nM | 11.8 µM | 3.33 | 35.6 µM | 2160 | 62.8 µM | 200 nM | 7.06 µM | 81.9 nM | 0.723 µM | 11 | > 100 | 338 | 15 | 16000 nM | 56.5 µM | 756 | 31.6 µM
3 | Nc1ccc(-c2ccc(Nc3cc(S(=O)(=O)O)c(N)c4c3C(=O)c3ccccc3C4=O)cc2)c(S(=O)(=O)O)c1 |  | > 100 |  | > 100 µM |  | > 100 µM |  | > 100 µM |  | > 100 µM |  | > 100 µM |  | > 100 |  | > 100 |  | > 100 µM |  | > 100 µM
4 | O=C1c2ccc3c4c(ccc(c24)C(=O)N1CCCNCc1ccccc1)C(=O)N(CCCNCc1ccccc1)C3=O | 180 | 0.356 | 142 nM | 0.303 µM | 0.694 | 2.25 µM | 110 | 0.405 µM | 112 nM | 0.301 µM | 265 nM | 0.939 µM | 0.236 | 0.779 | 451 | 0.889 | 154 nM | 0.303 µM | 173 | 0.531 µM
5 | O=C1OCC2=C1C(c1cccc(C(F)(F)F)c1)c1cc3c(cc1N2CCO)OCO3 (configuration not stated) | 161 | 0.641 | 573 nM | 2.16 µM | 21.7 | > 50 µM | 1610 | > 50 µM | 1820 nM | > 50 µM | 1790 nM | > 50 µM | 1.34 | > 50 | 919 | 27.3 | 1550 nM | 17 µM | 4780 | > 50 µM
6 | CC(C)(C)OC(=O)N1CC(Cn2cc(C(F)(F)F)c3c(Cl)ncnc32)C1 | 1720 | 3.14 | 13300 nM | 28.4 µM | 18.9 | 41.9 µM | 1860 | 3.92 µM | 1790 nM | 3.26 µM | 2670 nM | 6.33 µM | 13.9 | 65.4 | 1620 | 3.06 | 1790 nM | 3.34 µM | 1750 | 3.4 µM
7 | C=CC(=O)NCCOc1cccc(Nc2cc(NCCCNC(=O)C3CCC3)c(Br)cn2)c1 | 2490 | 6.03 | 819 nM | 4.96 µM | 0.613 | > 25 µM | 963 | 12.9 µM | 851 nM | 18.7 µM | 1660 nM | > 25 µM | 8.74 | > 25 | 603 | 1.93 | 2490 nM | 7.59 µM | 482 | 3.73 µM
8 | S=c1nc[nH]c2nc[nH]c12 | 610 | > 750 | 5300 nM and 8690 nM | > 100 µM and 302 µM and > 750 µM |  | > 100 µM and 676 µM and > 750 µM | 23300 | > 100 µM and 695 µM and > 750 µM | 19300 nM and 72400 nM | > 100 µM and 719 µM and > 750 µM | 1180 nM and 10300 nM | > 100 µM and 489 µM and 171 µM |  | > 735 |  | > 750 | 2930 nM and 11700 nM | > 100 µM and 463 µM and > 750 µM | 12300 | > 100 µM and 681 µM and > 750 µM
9 | COc1ccccc1-c1ccc2nc(NC(=O)Nc3cc(C(F)(F)F)cc(C(F)(F)F)c3)sc2c1 | 2270 | 6.73 | 1760 nM | 9.35 µM | 2.16 | 5.67 µM | 2830 | 10.7 µM | 2310 nM | 10.3 µM | 1630 nM | 5.76 µM | 2.37 | 7.19 | 1620 | 3.72 | 2650 nM | 11.1 µM | 2860 | 12.2 µM
10 | NC(=O)c1ccc2nc(-c3ccc(C4(N)CCC4)cc3)c(-c3ccccc3)n2n1 | 11800 | 24.4 | 16700 nM | 33.9 µM | 12.7 | 32.5 µM | 88.6 | 10.7 µM | 6270 nM | 21.5 µM | 10900 nM | 30.9 µM | 15.1 | 41.2 | 1280 | 14.5 | 13000 nM | 31.7 µM | 13100 | 30.1 µM
11 | Cc1cc(C(=O)N[C@@H](CCC(=O)O)C(=O)O)sc1CC[C@@H]1CNc2nc(N)[nH]c(=O)c2C1 | 29.6 | > 100 | 32.2 nM | > 100 µM | < 0.0245 | > 100 µM | 46.3 | > 100 µM | 27.4 nM | > 100 µM | 64.8 nM | > 100 µM | 0.0481 | > 100 | 88.3 | > 100 | 75.1 nM | > 100 µM | 37.2 | > 100 µM
12 | COc1cc(-c2nc(-c3nnc(-c4ccc(F)c(Cl)c4)o3)c3ccccn23)cc(OC)c1OC | 3090 | > 100 | 1920 nM | 4.66 µM | 2.38 | 6.07 µM | 3610 | > 100 µM | 1860 nM | 4.43 µM | 1790 nM | 5.65 µM | 1.88 | 5.24 | 1670 | 4.46 | 5640 nM | > 100 µM | 2030 | 5.48 µM
